These results are taken from patent publication US20260174739A1 (priority 2022, published 2026).

Molecules are shown by their SMILES. Like-named read-outs stand apart in the source and are kept apart here.

The nature of series [1]: Human liver microsome assay (metabolic stability). Format: in vitro ADME. The note with it: pH 7.4. As for the experimental part: Control and reagent: NADPH, magnesium chloride, testosterone, phosphate buffer, etc. were supplied by Dalian Meilun Biotech Co., Ltd., etc.
Liver microsome: human liver microsomes were supplied by Corning.
Experimental step: the liver microsome incubations were performed in 96-well plates, each incubation system having a volume of 200 μL, in a medium of 0.1 M phosphate buffer (pH 7.4), including liver microsomes at a final concentration of 0.2 mg/mL, 1 μM of the test drug, 3.0 mM MgCl2, 0.01% DMSO, 0.5% acetonitrile, and 2.0 mM NADPH. The incubation system described above without NADPH was pre-incubated at 37° C. for 5 min using a rotary water bath constant temperature oscillator. NADPH was added to initiate the reaction. At 0, 5, 15, 30, and 60 min, 20 μL of the sample was taken out from the incubation system after mixing well and added to 200 μL of acetonitrile containing an internal standard to terminate the reaction. Under the same conditions, 1 μM testosterone was used as a positive control to assess the reliability of the reaction system. For the negative control, phosphate buffer was used instead of NADPH, and all other incubation conditions remained the same. At 60 min, 20 μL of the sample was taken out after mixing well and added to 200 μL of termination solution containing an internal standard to terminate the reaction.
Sample analysis: After treatments such as precipitated protein extraction with an organic solvent, the incubated sample was analyzed using liquid chromatography-tandem mass spectrometry (LC-MS/MS). The concentrations of the test drug or the positive control drug in the sample were semi-quantified. The concentration in the sample was expressed using the ratio of the analyte peak area to the internal standard peak area.
Data processing and analysis: A standard curve of the In residual rate of the drug in the incubation system with respect to the incubation time was plotted by using Excel software, linear regression was performed to obtain a slope k, and the half-life T1/2 (min) and the intrinsic clearance CLint (mL/min/kg) were calculated according to the following formula: […]
(In general: Microsomes from liver hold many membrane-bound enzymes, among them those of drug oxidation.)

The target in the next series is human SERT (Homo sapiens, UniProt P31645). Kind of series: Inhibitory activity assay against 5-HT transporter (neurotransmitter transporter uptake assay kit). The note with it: HEK-293 cells overexpressing human SERT; read-out: 5-HTT (IC50). Format: cell-based. As for the experimental part:
In HEK-293 cells overexpressing human SERT, the transporter inhibitory effect of the test compound on human SERT was assayed using a Neurotransmitter transporter uptake assay kit (Molecular devices).

The next series has as its target human DAT (Homo sapiens, UniProt Q01959). The experiment in a line: DAT transporter inhibitory activity test (neurotransmitter transporter uptake assay kit). The class given is cell-based.
The target of the next series is human NET (Homo sapiens, UniProt P23975). The experiment in a line: NET transporter inhibitory activity test (neurotransmitter transporter uptake assay kit). The class given is cell-based. As for the experimental part: Transporter inhibition of human DAT and NET expressed in HEK-293 cells was assessed using a neurotransmitter transporter uptake assay kit. The assay was performed as described in the kit instructions, using centanafadine as a positive control. The specific procedures were as follows:
First day cell plating: HEK 293T cells were digested with trypsin, centrifuged, resuspended with a medium, counted, and seeded into a 6 cm culture dish at a density of 3×10^6 cells/well.
Second day cell transfection: HEK 293T cells were subjected to medium exchange, and then A, B tubes were prepared for NET-pcDNA5/FRT plasmid to be transfected. 200 μL of Opti-MEM was added to tube A, and 10 μL of Lipofectamine™ 3000 was added. The mixture was mixed well. 200 μL of Opti-MEM was added to tube B, and 5 μg of NET-pcDNA5/FRT plasmid was added. The mixture was mixed well, and then 10 μL of P3000™ was added to tube B. The mixture was mixed well (plasmid to transfection reagent ratio 1 μg:2 μL). The diluted solution of tube A was added to the diluted solution of tube B. The mixture was mixed well, and incubated at room temperature for 15 min. Finally, the mixture was gently added to the cells that had been subjected to medium exchange, gently shaken to mix, and then incubated overnight in an incubator at 37° C. with a carbon dioxide concentration of 5%. The cells were used for compound functional activity assays 18-20 h after transfection.
• a) After overnight transfection of NET cells, the cells were digested with trypsin, resuspended with DMEM+10% Dialyzed FBS medium, seeded into a 384-well plate at 20000 cells/well, and incubated overnight. Stably transfected DAT cells were digested with trypsin, resuspended with DMEM+10% Dialyzed FBS medium, seeded into a 384-well plate at 2500 cells/well, and incubated overnight. • b) 1× Assay buffer was prepared according to the kit instruction for later use; the positive compound and the test compound were serially diluted with DMSO, and then diluted to 2× with 1× assay buffer. • c) The medium was removed from the 384-well plate by centrifugation. • d) 16 μL of the compound prepared in step b) was added to corresponding experimental wells, wherein an initial concentration of 2× positive control compound was added to the positive control well, and 0.2% DMSO buffer was added to the negative control well. After centrifuging, the plate was incubated at 37° C. for 30 min. • e) A detection reagent was prepared using 1×HBSS, and 16 μL of the detection reagent was added to each well. After centrifuging, the plate was incubated at 37° C. for 60 min. • f) After incubation, the reading at 510 nm under the excitation of the detection wavelength of 425 nm was measured using a microplate reader. Curve fitting and IC50 calculation were performed using GraphPad Prism software nonlinear regression method.

Series [2] in a line: In vivo metabolism (pharmacokinetic) experiment in mice. The following applies: mouse. Also on record: species or system male ICR mice. Summed up: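 Fasted (12 h) male ICR mice received compound in 5% DMSO/5% Solutol HS15/90% saline at 2.5 mg/kg iv or 10 mg/kg po. Plasma and brain sampled 0.083–8 h (n=3 per time point) and analysed by LC-MS/MS. Parameters derived by non-compartmental analysis.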

Another series concerns the target Sigma2 receptor (Homo sapiens, UniProt Q5BJF2). Kind of series: Sigma receptor affinity assay ([3H]-DTG binding), Sigma2R. How it is done:
Cell membrane: the membrane protein adopted in the experiment was extracted from an HEK293 cell strain stably expressing Sigmal receptor and an HEK293 cell strain stably expressing Sigma2 receptor, which were constructed by WuXi AppTec.
• 1) Detection buffer: 50 mM Tris-HCl, pH=7.4, stored at 4° C. • 2) Sigma 1R assay plate washing buffer: 50 mM Tris-HCl, pH=7.4, stored at 4° C.; sigma2R assay plate washing buffer: 50 mM Tris-HCl, 100 mM NaCl, pH=7.4, stored at 4° C. • 3) The compounds were diluted to each working concentration: 4-fold serial gradient dilutions for 8 concentrations.
The affinity inhibition constant Ki was calculated using the Cheng Prusoff equation: […]

A further series concerns male C57 mice. The experiment in a line: Forced swim test. The class given is in vivo. The note with it: intraperitoneal injection, test 0.5 h after dosing, motionless time in last 4 min. How it is done:
Drug: the compound of the present disclosure was first uniformly mixed with 5% DMSO and 5% Solutol® HS 15. hysiological saline was then added to make up 90% of the final volume. The mixture was prepared at an appropriate concentration immediately before use.
Animal: male C57 mice, about 22 g. The animals were randomly divided into a blank control group and test drug groups, 8 animals per group, and mice in each group were administered either the vehicle or the test compound via intraperitoneal injection.
Experimental steps: the mice were subjected to forced swim test 0.5 h after dosing. The water level in the forced swim device was 45 cm, and the water temperature was 25° C. The mice were placed in an experimental room to adapt to the environment for 1 h before the experiment began. When the experiment began, the mice were placed in the device for 6 min, and the whole process was recorded by a camera. Only the motionless time of the mice in the last 4 min was counted when data were analyzed.

[3] abbreviates: human liver microsomes 0.2 mg/mL, 1 μM test drug, NADPH, 37° C., read-out: Half-life (t1/2, min).
[4] abbreviates: human liver microsomes 0.2 mg/mL, 1 μM test drug, NADPH, 37° C., read-out: Intrinsic clearance (Clint, mL/min/kg).
The mark [5] stands for this setting: DAT stably transfected HEK cells, read-out: DAT (IC50).
[6] abbreviates: HEK293 membranes stably expressing Sigma2 receptor, [3H]-DTG 5 nM, read-out: Sigma2R (Ki).
The mark [7] stands for this setting: male ICR mice, oral 10 mg/kg vs iv 2.5 mg/kg, read-out: F (%).
[8] abbreviates: male ICR mice, oral 10 mg/kg, plasma, read-out: AUC0-inf(po).
Setting [9] is: male ICR mice, oral 10 mg/kg, plasma, read-out: Cmax (po).
Setting [10] is: male ICR mice, oral 10 mg/kg, plasma, read-out: T1/2 (po) (converted).

human DAT, sequence (Q01959 whole entry): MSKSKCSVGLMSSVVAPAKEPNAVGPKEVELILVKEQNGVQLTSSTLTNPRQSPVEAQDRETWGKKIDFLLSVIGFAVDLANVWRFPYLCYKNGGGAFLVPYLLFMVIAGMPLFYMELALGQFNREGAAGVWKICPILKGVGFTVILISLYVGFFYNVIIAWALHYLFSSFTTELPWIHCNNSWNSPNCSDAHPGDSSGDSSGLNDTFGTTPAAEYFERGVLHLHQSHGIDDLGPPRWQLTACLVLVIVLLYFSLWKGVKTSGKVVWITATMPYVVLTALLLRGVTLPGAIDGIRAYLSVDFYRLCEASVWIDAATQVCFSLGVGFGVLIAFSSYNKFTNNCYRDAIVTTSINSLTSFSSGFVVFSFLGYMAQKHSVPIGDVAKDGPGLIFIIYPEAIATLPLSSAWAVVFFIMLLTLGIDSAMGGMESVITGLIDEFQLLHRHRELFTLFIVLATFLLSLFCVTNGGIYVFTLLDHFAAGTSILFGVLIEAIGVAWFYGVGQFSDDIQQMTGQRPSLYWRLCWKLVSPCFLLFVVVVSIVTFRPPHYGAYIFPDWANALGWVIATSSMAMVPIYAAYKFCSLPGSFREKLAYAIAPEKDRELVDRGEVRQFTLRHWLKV
Sigma2 receptor, sequence (Q5BJF2 whole entry, species assumed): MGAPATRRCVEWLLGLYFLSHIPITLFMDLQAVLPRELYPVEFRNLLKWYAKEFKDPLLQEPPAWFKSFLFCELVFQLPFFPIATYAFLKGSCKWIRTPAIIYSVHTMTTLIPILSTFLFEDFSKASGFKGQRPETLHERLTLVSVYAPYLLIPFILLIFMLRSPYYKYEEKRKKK
human SERT, sequence (P31645 whole entry): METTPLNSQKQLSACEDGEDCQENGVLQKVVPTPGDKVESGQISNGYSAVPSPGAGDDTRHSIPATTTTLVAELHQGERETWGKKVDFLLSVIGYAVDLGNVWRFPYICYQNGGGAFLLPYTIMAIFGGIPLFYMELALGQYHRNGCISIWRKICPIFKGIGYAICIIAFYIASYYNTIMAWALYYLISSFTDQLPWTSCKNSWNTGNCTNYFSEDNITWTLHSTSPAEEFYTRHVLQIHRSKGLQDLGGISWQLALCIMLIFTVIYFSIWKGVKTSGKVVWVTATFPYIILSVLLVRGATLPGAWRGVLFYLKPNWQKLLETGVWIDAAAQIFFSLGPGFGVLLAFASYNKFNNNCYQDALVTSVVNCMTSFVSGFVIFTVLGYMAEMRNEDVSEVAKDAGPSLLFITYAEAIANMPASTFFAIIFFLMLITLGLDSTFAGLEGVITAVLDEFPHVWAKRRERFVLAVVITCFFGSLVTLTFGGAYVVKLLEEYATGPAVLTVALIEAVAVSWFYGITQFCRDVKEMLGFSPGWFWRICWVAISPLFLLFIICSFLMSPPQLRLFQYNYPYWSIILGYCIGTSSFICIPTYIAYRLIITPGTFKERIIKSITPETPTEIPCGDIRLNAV
human NET, sequence (P23975 whole entry): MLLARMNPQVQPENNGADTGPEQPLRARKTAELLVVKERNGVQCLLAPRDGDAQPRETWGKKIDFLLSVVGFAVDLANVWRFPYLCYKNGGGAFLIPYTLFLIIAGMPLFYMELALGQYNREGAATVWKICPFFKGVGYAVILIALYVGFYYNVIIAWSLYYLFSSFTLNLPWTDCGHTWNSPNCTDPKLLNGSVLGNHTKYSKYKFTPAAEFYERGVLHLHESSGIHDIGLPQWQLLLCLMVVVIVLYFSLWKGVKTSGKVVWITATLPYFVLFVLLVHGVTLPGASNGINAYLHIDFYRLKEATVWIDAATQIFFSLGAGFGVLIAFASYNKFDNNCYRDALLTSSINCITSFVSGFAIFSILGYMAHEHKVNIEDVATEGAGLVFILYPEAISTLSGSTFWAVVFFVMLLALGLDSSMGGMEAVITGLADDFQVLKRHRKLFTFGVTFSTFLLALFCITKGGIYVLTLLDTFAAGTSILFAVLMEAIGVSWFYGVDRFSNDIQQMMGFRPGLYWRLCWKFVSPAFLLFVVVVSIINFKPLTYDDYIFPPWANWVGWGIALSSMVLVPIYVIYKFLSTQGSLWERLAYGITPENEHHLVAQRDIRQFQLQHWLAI

Consider `Nc1nc2c(s1)CC(c1cccc(Cl)c1)(N1CCCCC1)CC2` (racemic) [rac-A49, 6-(3-chlorophenyl)-6-(piperidin-1-yl)-4,5,6,7-tetrahydrobenzothiazol-2-amine], for which, in series [1] (setting [3]), the half-life at 1 μM is 117 min. Moreover, the CLint scaled at 1 μM in series [1] (setting [4]) is 34.7 mL/min/kg. Also, the IC50 on human SERT was found to be 1200 nM; at human DAT (setting [5]) it was 330 nM; against human NET, 2500 nM.

Molecule `CNC1(c2ccccc2)CCc2nc(N)sc2C1` (racemic) [rac-A3, N^6-methyl-6-phenyl-4,5,6,7-tetrahydrobenzothiazole-2,6-diamine] came in with an AUC(0-inf) in series [2] (male, ICR, po, 10 mg/kg, AUC0-inf(po) (ng*h/mL)) of 1160 ng·h/mL. For the same molecule, the Cmax in series [2] (male, ICR, po, 10 mg/kg, Cmax (po) (ng/mL)) is 330 ng/mL. In addition, the bioavailability in series [2] (male, ICR, po, 10 mg/kg, F (%)) stood at 56%. This molecule had a half-life in series [2] (male, ICR, po, 10 mg/kg, T1/2 (po) (h)) of 2.85 h. The Ki at Sigma2 receptor (setting [6]) is 124 nM. In addition, the “Effective dose” value in the series with male C57 mice turned out to be 3 mg/kg. For the same molecule, the figures for the IC50 on human SERT and at human DAT were 1200 nM and 1000 nM, respectively.

Regarding `Nc1nc2c(s1)CC(c1cccc(Cl)c1)(N1CCCC1)CC2` (racemic) [rac-A51, 6-(3-chlorophenyl)-6-(pyrrolidin-1-yl)-4,5,6,7-tetrahydrobenzothiazol-2-amine], the IC50 on human SERT was determined as 1200 nM; at human DAT (setting [5]) it was 200 nM; on human NET it was 300 nM.

With `CNC1(c2ccccc2)CCc2ncsc2C1` (racemic) [rac-A13, N-methyl-6-phenyl-4,5,6,7-tetrahydrobenzothiazol-6-amine], the half-life at 1 μM in series [1] (setting [3]) is 266 min. Also, the CLint scaled at 1 μM in series [1] (setting [4]) is 15.2 mL/min/kg. The bioavailability in series [2] (setting [7]) is 78%. Also, the AUC(0-inf) in series [2] (setting [8]) was 845 ng·h/mL. The Cmax in series [2] (setting [9]) came out at 518 ng/mL. In series [2] (setting [10]), the half-life was 1.98 h. Further, at Sigma2 receptor, the Ki amounted to 308 nM. Also, in the series with male C57 mice, the “Effective dose” value is listed as 2.5 mg/kg.

On to `Nc1nc2c(s1)CC(c1ccccc1)(N1CCCC1)CC2` (racemic) [rac-A50, 6-Phenyl-6-(Pyrrolidin-1-Yl)-4,5,6,7-Tetrahydrobenzothiazol-2-amine], for which the bioavailability in series [2] (setting [7]) amounted to 38%. Besides, the AUC(0-inf) in series [2] (setting [8]) amounted to 321 ng·h/mL. Also, the Cmax in series [2] (setting [9]) stood at 150 ng/mL. In series [2] (setting [10]), the half-life is 1.48 h. The IC50 on human SERT came out at 1700 nM; at human DAT (setting [5]) it was 100 nM; on human NET it was 800 nM.

For `CN[C@]1(c2ccccc2)CCc2ncsc2C1` [R-A13], the Ki on Sigma2 receptor (setting [6]) is 289 nM.

As to `N[C@@]1(c2ccccc2)CCc2ccsc2C1` [S-A19], the Ki on Sigma2 receptor (setting [6]) came out at 1120 nM.

With `CN[C@@]1(c2ccccc2)CCc2nc(N)sc2C1` [S-A3], the Ki at Sigma2 receptor (setting [6]) was determined as 990 nM. The IC50 on human DAT (setting [5]) was determined as 1600 nM.

Consider `CN(C)C1(c2ccccc2)CCc2nc(N)sc2C1` (racemic) [rac-A114, N^6,N^6-dimethyl-6-phenyl-4,5,6,7-tetrahydrobenzothiazole-2,6-diamine], for which the results for the IC50 on human SERT, on human DAT (setting [5]) and at human NET were 1000 nM, 1000 nM and 3500 nM, respectively.

As to `NC1(c2ccccc2)CCc2ccsc2C1` (racemic) [rac-A19, 6-phenyl-4,5,6,7-tetrahydrobenzothiophen-6-amine], in series [1] (setting [3]), the half-life at 1 μM came out at 80 min. In addition, in series [1] (setting [4]), the CLint scaled at 1 μM turned out to be 50.6 mL/min/kg. Besides, in series [2] (setting [7]), the bioavailability was 48%. Also, the AUC(0-inf) in series [2] (setting [8]) amounted to 797 ng·h/mL. In addition, the Cmax in series [2] (setting [9]) came out at 284 ng/mL. The half-life in series [2] (setting [10]) was 2.84 h. The Ki on Sigma2 receptor was determined as 523 nM.

In series [1] (human, microsomes), `Nc1nc2c(s1)CC(c1ccccc1)(N1CCCCC1)CC2` (racemic) [rac-A48, 6-phenyl-6-(piperidin-1-yl)-4,5,6,7-tetrahydrobenzothiazol-2-amine] registered a CLint scaled at 1 μM of 7.4 mL/min/kg and a half-life at 1 μM of 547 min. For the same molecule, the “Effective dose” value with male C57 mice is given as 1 mg/kg. Moreover, at human DAT, it took 760 nM to reach half-maximal inhibition (IC50). Further, on human NET (NET transiently transfected HEK 293T cells, read-out: NET (IC50)), the IC50 was 4600 nM.

On to `CN[C@]1(c2ccccc2)CCc2nc(N)sc2C1` [R-A3], for which, on Sigma2 receptor (setting [6]), the Ki stood at 1760 nM. Further, the IC50 at human SERT was determined as 1200 nM.

With `N[C@]1(c2ccccc2)CCc2ccsc2C1` [R-A19], the Ki on Sigma2 receptor (setting [6]) is 1270 nM. Also, on human SERT, the IC50 was determined as 1200 nM.

By IC50 is commonly meant the concentration at which inhibition is half-maximal. For orientation: Cmax means the highest concentration seen after dosing. In general, Ki refers to a measure of affinity in units of concentration, obtained from inhibition or displacement.
